From PubChem BioAssay (NCI) come the findings set out here.

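Following 48 hours of exposure in 96-well plates, responses at five concentrations were used to interpolate endpoints linearly. GI50 is the concentration that inhibits growth by half. TGI is the concentration that stops growth completely.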

Holding throughout (experiment): inhibition of tumour cell growth, NCI panel, 48 h
The subject of test [1] is SK-OV-3 ovarian.
Test [2] relates to NCI-H23 lung.
The subject of test [3] is A498 renal.
Test [4] relates to RPMI-8226 leukemia.
Test [5] deals with HOP-92 NSCLC.
Test [6] has as its system CAKI-1 renal.
In test [7] the test system is UACC-257 melanoma.
Test [8] relates to TK-10 renal.
For test [9], the system named is RXF 393 renal.
In test [10] the test system is A549 NSCLC.

In the case of `O=C(CC1(O)C(=O)Nc2ccc(Br)cc21)c1ccc(C(=O)NCC2CCC3(CC2)OOC2(CCCCC2)OO3)cc1` (configuration not stated), the GI50 in test [1] is 10.4 µM; in [2] it was 6.43 µM; in test [3], 14.7 µM; in test [4], 1.65 µM; in [5] it was 1.9 µM; in test [6] it was 13.5 µM. Moreover, the GI50 is 10.6 µM in [7], 3.71 µM in test [8], 5.46 µM in [9] and 4.3 µM in test [10]. Further, the TGI stood at 31.3 µM in test [1]; 32 µM in test [2]; 30.2 µM in test [3]; 4.47 µM in test [4]; 4.46 µM in test [5]; 31.2 µM in test [6]. Besides, the TGI in test [7] was 29 µM; in [8], 11.9 µM; in test [9], 26.7 µM; in [10], more than 100 µM.
As for `Cc1ncc(CO)c(CN)c1O`, the TGI in test [1], in [2], in test [3], in test [4], in [6] and in [7] was more than 100 µM each time. Also, the TGI in test [8], in test [9] and in test [10] was more than 100 µM throughout.
In the case of `CC[C@H](Nc1nc(N)nc(N)c1Cl)c1nc2cccc(NCc3ccc(C(=O)NO)cc3)c2c(=O)n1-c1ccccc1`, the GI50 was 1.34 µM in test [3]; 2.15 µM in [4]; 1.26 µM in test [5]; 2 µM in [6]; 1.94 µM in test [7]; 2.02 µM in test [8]. In addition, the GI50 in test [9] is 0.403 µM; in test [10], 2.33 µM. Besides, the TGI in test [3] stood at 2.71 µM; in test [4], 5.92 µM; in test [5] it was 2.81 µM; in test [6], 5 µM; in test [7] it was 4.92 µM; in test [8] it was 6.63 µM. For the same compound, the TGI in test [9] stood at 1.75 µM; in [10], 5.73 µM.
As for `c1ccc2c[n+](CCCCCCCCCC[n+]3ccc4ccccc4c3)ccc2c1`, the TGI in test [1], in test [2], in [3], in [4], in [5] and in test [6] was more than 10 µM throughout. The TGI in test [7], in test [8], in test [9] and in [10] was more than 10 µM in each case.
Consider `CN(C)c1ccc2nc3c(C(=O)O)cc(=O)c(O)c-3oc2c1`, for which the TGI in test [1] is more than 100 µM; in [2], 33.6 µM; in [3], more than 100 µM; in [4] it was 95.2 µM; in [5], more than 100 µM; in test [6] it was more than 100 µM. Moreover, the TGI was 32.3 µM in test [7], 47.5 µM in [8], 76.3 µM in test [9] and more than 100 µM in test [10].
Regarding `COc1cc2c(cc1OC)C(Cl)C(c1ccc(Cl)cc1)=C2Cl` (configuration not stated), the TGI in test [1] was 57.5 µM; in test [2] it was 41.1 µM; in [3] it was 46 µM; in test [4] it was 45.6 µM; in test [5], 32.3 µM; in test [6], 40.3 µM. Also, the TGI in test [8] was 43.4 µM.
As for `CC(C)CNc1nc(N)[nH]c(=O)c1NC=O`, the TGI in test [1], in test [2], in [3], in [4], in test [5] and in test [6] was more than 100 µM each time. Besides, the TGI in test [7], in [8], in test [9] and in test [10] was more than 100 µM each time.
Consider `O=C(O)c1ccccn1`, for which the TGI in [2], in test [3], in [4], in [5], in [6] and in test [7] was more than 100 µM in each case. The TGI in test [8], in test [9] and in test [10] was more than 100 µM in each case.
In the case of `NCS(=O)(=O)O`, the TGI in test [1], in test [2], in test [3], in [4], in [5] and in [6] was more than 100 µM in each case. Further, the TGI in test [7], in [8], in test [9] and in [10] was more than 100 µM in each case.
As to `N=C(N)c1ccc(-c2ccc(-c3ccc(Cl)cn3)s2)cc1`, the GI50 was 1.83 µM in test [1], 3.82 µM in [3], 1.27 µM in [5] and 1.8 µM in test [7]. Besides, the TGI in test [1] turned out to be 3.49 µM; in test [3], 17.3 µM; in test [5], 2.67 µM; in test [7], 3.62 µM.
Take `COc1cc2ccc1-c1cc(ccc1O)CC1c3cc4c(cc3CCN1C)Oc1c(OC)cc3c(c1O4)C(C2)N(C)CC3` (configuration not stated): the TGI is 3.9 µM in [2]; 3.79 µM in test [3]; 4.75 µM in test [4]; 27 µM in test [5]; 5.79 µM in test [6]; 3.23 µM in test [7]. Moreover, the results for the TGI in test [8], in test [9] and in [10] were 24.7 µM, 3.24 µM and 3.41 µM, respectively.
On to `CN(C)CCNC(=O)c1cccc2nc3c4ccccc4c4ccccc4c3nc12`, for which the TGI in [1] came to 13.4 µM; in test [2] it was 3.41 µM; in test [3], 15.6 µM; in test [4] it was 5.3 µM; in test [5] it was 39.4 µM; in [6] it was 47.7 µM. In addition, the TGI in test [7] turned out to be 10.6 µM; in [8] it was 9.86 µM; in test [9], 4.65 µM; in [10] it was 12.2 µM.
Take `CCOC(=O)c1c2c(c(O)c3ccccc3c(O)n(-c3ccc(C)cc3)c1C)C(=O)C=CC2=O`: the TGI is 89.7 µM in [1]; 52 µM in test [2]; 30.3 µM in test [4]; 56.9 µM in test [5]; 43.3 µM in [6]; 29.3 µM in test [7]. Besides, the TGI in test [8] was 57.2 µM; in [9] it was 55.7 µM; in test [10] it was more than 100 µM.
As for `C[C@@H]1CC[C@H]2C(COC/C=C/COCC3=C(C(F)(F)F)O[C@@H]4O[C@@]5(C)CC[C@H]6[C@H](C)CC[C@@H]3[C@@]46OO5)=C(C(F)(F)F)O[C@@H]3O[C@@]4(C)CC[C@@H]1[C@]32OO4`, the GI50 in [1] was more than 100 µM; in [2], less than 0.0178 µM; in test [3] it was 1.54 µM; in [4], less than 0.01 µM; in test [5], less than 0.032 µM; in test [6], 0.158 µM. Besides, the GI50 is 0.0538 µM in [7], 0.036 µM in test [8], 1.64 µM in test [9] and less than 0.0138 µM in test [10]. The TGI in test [1] is more than 100 µM; in test [2] it was 12.3 µM; in [3] it was more than 100 µM; in test [4] it was more than 100 µM; in test [7], 11.8 µM; in [8] it was more than 100 µM. The TGI in [9] is more than 20.7 µM; in test [10], more than 50.1 µM.
Take `O=C1c2ccccc2C(=O)c2c(NCCNC(=O)C3CCCN3)ccc(NCCNC(=O)C3CCCN3)c21` (configuration not stated): the TGI in test [1] was more than 100 µM; in test [2] it was more than 100 µM; in test [4], 58.8 µM; in test [5], more than 100 µM; in test [6], more than 100 µM; in test [7] it was more than 100 µM. Also, the TGI in test [8] and in [10] was more than 100 µM each time.
Turning to `COc1cnc2c(c1)C(=O)c1c-2n(CCCN2CCNCC2)c(=O)c2cc(Cl)ccc12`, the GI50 was 1.16 µM in test [1]; 0.551 µM in test [3]; 1.12 µM in test [5]; 0.414 µM in test [6]; 2.19 µM in test [7]. Also, the TGI in [1] was determined as 2.51 µM; in test [3], 2.28 µM; in test [5], 13.7 µM; in test [6] it was 1.91 µM; in test [7], 4.82 µM.
For `CCOC(=O)N1c2ccccc2S(=O)(=O)c2ccccc21`, the TGI in [1], in test [2], in test [3], in test [6], in [7] and in test [8] was more than 100 µM throughout. Further, the TGI in [9] and in test [10] was more than 100 µM in each case.
As to `Oc1cc(O)cc(/C=C/c2ccc(O)c(O)c2)c1`, the TGI in test [1] was 47.7 µM; in test [2] it was 40.2 µM; in [3] it was more than 70 µM; in test [4], more than 93.8 µM; in test [5], 50.3 µM; in test [6] it was more than 30.8 µM. Besides, the TGI in test [7] is more than 100 µM; in [9] it was 45.7 µM; in test [10], 53.4 µM.
Regarding `Cc1cc(=O)[nH]c(NN2C(Cl)C(=O)C2c2cccc([N+](=O)[O-])c2)n1` (configuration not stated), the TGI was 52.4 µM in [2]; 40.3 µM in [4]; 34.1 µM in [5]; more than 100 µM in test [7]; more than 100 µM in [8]; 22.5 µM in test [9]. In test [10], the TGI is more than 100 µM.
